Assay results: US11266147B2, “Fungicidal oxadiazoles” (Bayer Aktiengesellschaft, priority 2017, dated 2022)

Assay: LogP by HPLC on reversed phase columns (EEC directive 79/831 Annex V.A8)
Format: physicochemical
Conditions: method [a]: LC-UV, acidic range, 0.1% formic acid in water and acetonitrile, linear gradient 10% to 95% acetonitrile
Experimental: [table] If more than one LogP value is available within the same method, all the values are given and separated by “+”. Calibration was done with straight-chain alkan2-ones (with 3 to 16 carbon atoms) with known LogP values (measurement of LogP values using retention times with linear interpolation between successive alkanones). Lambda-max-values were determined using UV-spectra from 200 nm to 400 nm and the peak values of the chromatographic signals.

With `Fc1ccc(Nc2ncc(-c3noc(C(F)(F)F)n3)cn2)c(F)c1` [Compound I-42] the LogP was 3.70^[a].

With `FC(F)(F)c1cccc(Nc2ncc(-c3noc(C(F)(F)Cl)n3)cn2)c1` [Compound I-85] the LogP was 4.69^[a].

With `FC(F)(Cl)c1nc(-c2cnc(NC3Cc4ccccc4C3)nc2)no1` [Compound I-19] the LogP was 4.49^[a].

With `FC(F)(F)c1cccc(Nc2ncc(-c3noc(C(F)(F)F)n3)cn2)c1` [Compound I-53] the LogP was 4.46^[a].

In the case of `FC(F)(Cl)c1nc(-c2cnc(NC3CCOC3)nc2)no1` (stereo not shown) [Compound I-11], the LogP is reported as 2.55^[a].

For `CC1(Nc2ncc(-c3noc(C(F)(F)Cl)n3)cn2)CC1` [Compound I-14], the LogP was 3.25^[a].

In the case of `FC(F)(F)c1nc(-c2cnc(NC3CCOC3)nc2)no1` (stereo not shown) [Compound I-10], the LogP is reported as 2.35^[a].

With `Cc1cccc(Nc2ncc(-c3noc(C(F)(F)F)n3)cn2)c1` [Compound I-56] the LogP was 4.13^[a].

For `O=S1(=O)CCC(Nc2ncc(-c3noc(C(F)(F)F)n3)cn2)C1` (stereo not shown) [Compound I-22], the LogP was 2.15^[a].

In the case of `FC(F)(Cl)c1nc(-c2cnc(Nc3ccc(Cl)cc3)nc2)no1` [Compound I-67], the LogP is reported as 4.56^[a].

In the case of `N#Cc1cccc(Nc2ncc(-c3noc(C(F)(F)F)n3)cn2)c1` [Compound I-51], the LogP is reported as 3.52^[a].

With `Cc1cccc(Nc2ccc(-c3noc(C(F)(F)F)n3)cc2)c1` [Compound I-35] the LogP was 4.93^[a].

For `FC(F)(F)c1nc(-c2cnc(Nc3ccon3)nc2)no1` [Compound I-57], the LogP was 2.50^[a].

With `CC(=O)N1CCC(Nc2ncc(-c3noc(C(F)(F)F)n3)cn2)CC1` [Compound I-13] the LogP was 2.17^[a].

In the case of `FC(F)(Cl)c1nc(-c2cnc(NC3CC3)nc2)no1` [Compound I-27], the LogP is reported as 2.76^[a].

With `FC1(F)CC(Nc2ncc(-c3noc(C(F)(F)Cl)n3)cn2)C1` [Compound I-18] the LogP was 3.48^[a].

In the case of `N#Cc1cccc(Nc2ncc(-c3noc(C(F)(F)Cl)n3)cn2)c1` [Compound I-82], the LogP is reported as 3.72^[a].

In the case of `COc1ccccc1Nc1ncc(-c2noc(C(F)(F)Cl)n2)cn1` [Compound I-78], the LogP is reported as 4.41^[a].

In the case of `CC(=O)N1CCC(Nc2ncc(-c3noc(C(F)(F)Cl)n3)cn2)CC1` [Compound I-20], the LogP is reported as 2.32^[a].

With `FC(F)(F)c1nc(-c2cnc(Nc3ccc(Cl)cc3)nc2)no1` [Compound I-62] the LogP was 4.34^[a].

For `FC(F)(Cl)c1nc(-c2cnc(NC3(c4ccccc4)CC3)nc2)no1` [Compound I-29], the LogP was 3.94^[a].

For `FC(F)(F)c1nc(-c2cnc(Nc3nc4c(s3)CCC4)nc2)no1` [Compound I-86], the LogP was 3.81^[a].

For `FC(F)(Cl)c1nc(-c2cnc(NC3CCOCC3)nc2)no1` [Compound I-15], the LogP was 2.76^[a].

In the case of `FC(F)Oc1ccc(Nc2ncc(-c3noc(C(F)(F)F)n3)cn2)cc1` [Compound I-43], the LogP is reported as 3.92^[a].

In the case of `COc1ccc(Nc2ncc(-c3noc(C(F)(F)Cl)n3)cn2)cc1` [Compound I-66], the LogP is reported as 3.79^[a].

For `FC(F)(F)c1nc(-c2cnc(NC3CC3)nc2)no1` [Compound I-31], the LogP was 2.57^[a].

In the case of `COc1cccc(Nc2ncc(-c3noc(C(F)(F)F)n3)cn2)c1` [Compound I-45], the LogP is reported as 3.76^[a].

In the case of `FC(F)(F)c1nc(-c2cnc(NC3(c4ccccn4)CCC3)nc2)no1` [Compound I-23], the LogP is reported as 1.96^[a].

In the case of `CC(=O)Nc1cccc(Nc2ncc(-c3noc(C(F)(F)Cl)n3)cn2)c1` [Compound I-74], the LogP is reported as 2.75^[a].

With `Cc1cccc(Nc2ncc(-c3noc(C(F)(F)Cl)n3)cn2)c1` [Compound I-68] the LogP was 4.34^[a].

For `FC(F)(Cl)c1nc(-c2cnc(Nc3ccon3)nc2)no1` [Compound I-64], the LogP was 2.71^[a].

With `FC(F)(Cl)c1nc(-c2cnc(NC3=NCCS3)nc2)no1` [Compound I-33] the LogP was 1.26^[a].

In the case of `N#CCc1ccc(Nc2ncc(-c3noc(C(F)(F)F)n3)cn2)cc1` [Compound I-48], the LogP is reported as 3.27^[a].

For `FC(F)(Cl)c1nc(-c2cnc(Nc3ccsc3)nc2)no1` [Compound I-65], the LogP was 3.92^[a].

In the case of `FC(F)(F)c1nc(-c2cnc(Nc3ccccc3Cl)nc2)no1` [Compound I-47], the LogP is reported as 4.20^[a].

In the case of `FC(F)(Cl)c1nc(-c2cnc(Nc3cccc4c3CCC4)nc2)no1` [Compound I-73], the LogP is reported as 4.69^[a].

For `FC(F)Oc1ccc(Nc2ncc(-c3noc(C(F)(F)Cl)n3)cn2)cc1` [Compound I-69], the LogP was 4.11^[a].

With `FC(F)(Cl)c1nc(-c2cnc(NC3(c4ccccn4)CCC3)nc2)no1` [Compound I-24] the LogP was 2.13^[a].

For `FC(F)(F)Oc1ccccc1Nc1ccc(-c2noc(C(F)(F)F)n2)cc1` [Compound I-39], the LogP was 5.11^[a].

With `COc1cc(Nc2ncc(-c3noc(C(F)(F)F)n3)cn2)ccc1C` [Compound I-52] the LogP was 4.30^[a].

For `FC(F)(F)c1nc(-c2cnc(NC3Cc4ccccc4C3)nc2)no1` [Compound I-26], the LogP was 4.27^[a].

For `FC(F)(F)c1nc(-c2cnc(Nc3ccc4c(c3)OCO4)nc2)no1` [Compound I-49], the LogP was 3.50^[a].

For `FC(F)(F)c1nc(-c2cnc(NC3(c4ccccc4)CC3)nc2)no1` [Compound I-17], the LogP was 3.74^[a].

In the case of `FC(F)(Cl)c1nc(-c2cnc(Nc3ccc(S(F)(F)(F)(F)F)cc3)nc2)no1` [Compound I-83], the LogP is reported as 5.00^[a].

With `FC(F)(Cl)c1nc(-c2cnc(NC3CCCC3)nc2)no1` [Compound I-28] the LogP was 4.08^[a].

With `Fc1ccc(Nc2ncc(-c3noc(C(F)(F)Cl)n3)cn2)c(F)c1` [Compound I-75] the LogP was 3.92^[a].

For `FC(F)(F)c1nc(-c2cnc(Nc3ccsc3)nc2)no1` [Compound I-58], the LogP was 3.70^[a].

For `FC(F)(Cl)c1nc(-c2cnc(Nc3ccc4c(c3)OCO4)nc2)no1` [Compound I-70], the LogP was 3.72^[a].

In the case of `Fc1cccc(Nc2ncc(-c3noc(C(F)(F)F)n3)cn2)c1` [Compound I-44], the LogP is reported as 3.94^[a].

In the case of `FC(F)(Cl)c1nc(-c2cnc(NC3CC3C(F)(F)F)nc2)no1` (stereo not shown) [Compound I-09], the LogP is reported as 3.65^[a].

For `FC(F)(Cl)c1nc(-c2cnc(Nc3ccc4ncccc4c3)nc2)no1` [Compound I-90], the LogP was 2.13^[a].

With `Fc1ccccc1Nc1ncc(-c2noc(C(F)(F)Cl)n2)cn1` [Compound I-41] the LogP was 3.94^[a].

With `FC(F)(F)c1nc(-c2cnc(NC3CC3C(F)(F)F)nc2)no1` (stereo not shown) [Compound I-21] the LogP was 3.46^[a].

For `Fc1ccc(Nc2ncc(-c3noc(C(F)(F)F)n3)cn2)cc1` [Compound I-63], the LogP was 3.79^[a].

In the case of `CN(c1ncc(-c2noc(C(F)(F)Cl)n2)cn1)C1CCCC1` [Compound I-12], the LogP is reported as 5.42^[a].

For `FC(F)(F)c1nc(-c2cnc(Nc3ccc4ncccc4c3)nc2)no1` [Compound I-87], the LogP was 1.98^[a].

In the case of `FC(F)(F)c1nc(-c2cnc(NC3=NCCS3)nc2)no1` [Compound I-34], the LogP is reported as 1.08^[a].

In the case of `CC(=O)Nc1cccc(Nc2ncc(-c3noc(C(F)(F)F)n3)cn2)c1` [Compound I-50], the LogP is reported as 2.59^[a].

In the case of `FC(F)(F)c1nc(-c2cnc(Nc3ccccc3)nc2)no1` [Compound I-61], the LogP is reported as 3.74^[a].

For `Cc1ccnc(Nc2ccc(-c3noc(C(F)(F)Cl)n3)cc2)n1` [Compound I-40], the LogP was 2.98^[a].

In the case of `CC(=O)N(c1ncc(-c2noc(C(F)(F)F)n2)cn1)c1ccccc1F` [Compound I-07, N-(2-fluorophenyl)-N-{5-[5-(trifluoromethyl)-1,2,4-oxadiazol-3-yl]pyrimidin-2-yl}acetamide], the chromatographic logP (reversed phase HPLC column) is reported as 3.23.

With `O=S1(=O)CCC(Nc2ncc(-c3noc(C(F)(F)Cl)n3)cn2)C1` (stereo not shown) [Compound I-30] the LogP was 2.32^[a].

With `COc1cccc(Nc2ncc(-c3noc(C(F)(F)Cl)n3)cn2)c1` [Compound I-80] the LogP was 3.96^[a].

For `FC(F)(F)c1nc(-c2cnc(Nc3ccc(S(F)(F)(F)(F)F)cc3)nc2)no1` [Compound I-55], the LogP was 4.80^[a].

For `N#CCc1ccc(Nc2ncc(-c3noc(C(F)(F)Cl)n3)cn2)cc1` [Compound I-84], the LogP was 3.46^[a].

For `COc1ccccc1Nc1ncc(-c2noc(C(F)(F)F)n2)cn1` [Compound I-54], the LogP was 4.18^[a].

In the case of `Fc1ccc(Nc2ncc(-c3noc(C(F)(F)Cl)n3)cn2)cc1` [Compound I-72], the LogP is reported as 3.99^[a].

With `FC(F)(Cl)c1nc(-c2cnc(Nc3nc4c(s3)CCC4)nc2)no1` [Compound I-89] the LogP was 4.03^[a].

For `FC(F)(Cl)c1nc(-c2cnc(Nc3cccc(Cl)c3)nc2)no1` [Compound I-79], the LogP was 4.56^[a].

In the case of `FC(F)(F)c1nc(-c2ccc(Nc3ccc(Cl)cc3)cc2)no1` [Compound I-38], the LogP is reported as 5.00^[a].

For `FC1(F)CC(Nc2ncc(-c3noc(C(F)(F)F)n3)cn2)C1` [Compound I-32], the LogP was 3.29^[a].

For `FC(F)(F)c1nc(-c2cnc(Nc3cccc4c3CCC4)nc2)no1` [Compound I-60], the LogP was 4.44^[a].

For `COc1cc(Nc2ncc(-c3noc(C(F)(F)Cl)n3)cn2)ccc1C` [Compound I-81], the LogP was 4.51^[a].

In the case of `Fc1cccc(Nc2ncc(-c3noc(C(F)(F)Cl)n3)cn2)c1` [Compound I-76], the LogP is reported as 4.18^[a].

For `COc1ccc(Nc2ncc(-c3noc(C(F)(F)F)n3)cn2)cc1` [Compound I-59], the LogP was 3.57^[a].

In the case of `FC(F)(F)c1nc(-c2cnc(Nc3cccc(Cl)c3)nc2)no1` [Compound I-46], the LogP is reported as 4.34^[a].

For `FC(F)(F)c1cccc(Nc2ccc(-c3noc(C(F)(F)F)n3)cc2)c1` [Compound I-36], the LogP was 5.08^[a].

In the case of `FC(F)(Cl)c1nc(-c2cnc(Nc3ccccc3)nc2)no1` [Compound I-71], the LogP is reported as 3.96^[a].

For `CC1(Nc2ncc(-c3noc(C(F)(F)F)n3)cn2)CC1` [Compound I-25], the LogP was 3.04^[a].

With `Cc1ccnc(Nc2ccc(-c3noc(C(F)(F)F)n3)cc2)n1` [Compound I-06] the LogP was 3.83^[a].

In the case of `FC(F)(F)c1nc(-c2cnc(NC3CCCC3)nc2)no1` [Compound I-08], the LogP is reported as 3.83^[a].

In the case of `Cn1ccnc1Nc1ncc(-c2noc(C(F)(F)F)n2)cn1` [Compound I-88], the LogP is reported as 1.08^[a].
